Patent US5672715A, “Herbicidal substituted 3-aryl-pyrazoles” (Monsanto Company, priority 1995, dated 1997)

Legend:
Assay in all cases: pre-emergence herbicide test
Assay type in all cases: in vivo
[1] = system: Barnyardgrass; conditions: Echinochloa crus-galli, pre-emergence, read-out: % plant inhibition; for inhibition at 7.95803 g/ha: 0.0071 lb/A; for inhibition at 40.0143 g/ha: 0.0357 lb/A; for inhibition at 200.072 g/ha: 0.1785 lb/A; for inhibition at 280.212 g/ha: 0.25 lb/A; for inhibition at 1000.92 g/ha: 0.893 lb/A
Summary of the method: (§1)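 Greenhouse pan assay in which seeds lie under a treated topsoil cover; carrier was acetone or water. Inhibition (%) was recorded about 14 days post-treatment.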

[2] = system: Broadleaf Signalgrass; conditions: Urochloa platyphylla, 0.25 lb/A, read-out: % plant inhibition
Summary of the method: as §1

[3] = system: Cocklebur; conditions: Xanthium strumarium, pre-emergence, read-out: % plant inhibition; for inhibition at 7.95803 g/ha: 0.0071 lb/A; for inhibition at 40.0143 g/ha: 0.0357 lb/A; for inhibition at 200.072 g/ha: 0.1785 lb/A; for inhibition at 1000.92 g/ha: 0.893 lb/A
Summary of the method: as §1

[4] = system: Corn; conditions: for inhibition at 7.95803 g/ha / inhibition at 40.0143 g/ha / inhibition at 200.072 g/ha / inhibition at 280.212 g/ha / inhibition at 1000.92 g/ha: Zea mays, pre-emergence, read-out: % plant inhibition; for inhibition at 7.95803 g/ha: 0.0071 lb/A; for inhibition at 40.0143 g/ha: 0.0357 lb/A; for inhibition at 200.072 g/ha: 0.1785 lb/A; for inhibition at 1000.92 g/ha: 0.893 lb/A
Summary of the method: as §1

[5] = system: Giant Foxtail; conditions: Setaria faberi, pre-emergence, 0.25 lb/A; read-out: % plant inhibition
Summary of the method: as §1

[6] = system: Morning Glory; conditions: Ipomoea, pre-emergence, read-out: % plant inhibition; for inhibition at 7.95803 g/ha: 0.0071 lb/A; for inhibition at 40.0143 g/ha: 0.0357 lb/A; for inhibition at 200.072 g/ha: 0.1785 lb/A; for inhibition at 1000.92 g/ha: 0.893 lb/A
Summary of the method: as §1

[7] = system: Seedling Johnsongrass; conditions: Sorghum halepense, pre-emergence, 0.25 lb/A; read-out: % plant inhibition
Summary of the method: as §1

[8] = system: Shattercane; conditions: 0.25 lb/A, read-out: % plant inhibition
Summary of the method: as §1

[9] = system: Soybean; conditions: Glycine max, pre-emergence, read-out: % plant inhibition; for inhibition at 7.95803 g/ha: 0.0071 lb/A; for inhibition at 40.0143 g/ha: 0.0357 lb/A; for inhibition at 200.072 g/ha: 0.1785 lb/A; for inhibition at 280.212 g/ha: 0.25 lb/A; for inhibition at 1000.92 g/ha: 0.893 lb/A
Summary of the method: as §1

[10] = system: Wild Proso Millet; conditions: 0.25 lb/A, read-out: % plant inhibition
Summary of the method: as §1

[11] = system: Yellow Nutsedge; conditions: Cyperus, read-out: % plant inhibition; for inhibition at 7.95803 g/ha: 0.0071 lb/A; for inhibition at 40.0143 g/ha: 0.0357 lb/A; for inhibition at 200.072 g/ha: 0.1785 lb/A; for inhibition at 1000.92 g/ha: 0.893 lb/A
Summary of the method: as §1

Q: For COc1cc(-c2nn(C)c(C(F)(F)F)c2C)c(F)cc1Cl [Compound 37], which inhibition at 7.95803 g/ha [1] is on record?
A: Its inhibition at 7.95803 g/ha is 80%.

Q: And the inhibition at 40.0143 g/ha [1]?
A: The inhibition at 40.0143 g/ha was 100%.

Q: And the inhibition at 200.072 g/ha [1]?
A: The inhibition at 200.072 g/ha was 100%.

Q: And the inhibition at 280.212 g/ha [1]?
A: Its inhibition at 280.212 g/ha is 100%.

Q: And the inhibition at 1000.92 g/ha [1]?
A: The inhibition at 1000.92 g/ha was 100%.

Q: What about the inhibition at 280.212 g/ha [2] of the same compound?
A: Its inhibition at 280.212 g/ha is 100%.

Q: And the inhibition at 7.95803 g/ha [3]?
A: The inhibition at 7.95803 g/ha was 100%.

Q: What about the inhibition at 40.0143 g/ha [3] of the same compound?
A: The inhibition at 40.0143 g/ha was 75%.

Q: What about the inhibition at 200.072 g/ha [3] of the same compound?
A: The inhibition at 200.072 g/ha was 80%.

Q: And the inhibition at 280.212 g/ha ([3]; 0.25 lb/A)?
A: Its inhibition at 280.212 g/ha is 60%.

Q: What about the inhibition at 1000.92 g/ha [3] of the same compound?
A: The inhibition at 1000.92 g/ha was 98%.

Q: What about the “% plant inhibition” value ([4]; 0.25 lb/A) of the same compound?
A: Its value is 98%.

Q: What about the inhibition at 7.95803 g/ha [4] of the same compound?
A: The inhibition at 7.95803 g/ha was 25%.

Q: What about the inhibition at 40.0143 g/ha [4] of the same compound?
A: The inhibition at 40.0143 g/ha was 50%.

Q: And the inhibition at 200.072 g/ha [4]?
A: The inhibition at 200.072 g/ha was 85%.

Q: And the inhibition at 280.212 g/ha ([4]; 0.25 lb/A)?
A: The inhibition at 280.212 g/ha was 95%.

Q: And the inhibition at 1000.92 g/ha [4]?
A: The inhibition at 1000.92 g/ha was 100%.

Q: What about the inhibition at 280.212 g/ha [5] of the same compound?
A: Its inhibition at 280.212 g/ha is 100%.

Q: And the inhibition at 7.95803 g/ha [6]?
A: Its inhibition at 7.95803 g/ha is 80%.

Q: What about the inhibition at 40.0143 g/ha [6] of the same compound?
A: Its inhibition at 40.0143 g/ha is 98%.

Q: And the inhibition at 200.072 g/ha [6]?
A: Its inhibition at 200.072 g/ha is 90%.

Q: What about the inhibition at 280.212 g/ha ([6]; 0.25 lb/A) of the same compound?
A: Its inhibition at 280.212 g/ha is 98%.

Q: And the inhibition at 1000.92 g/ha [6]?
A: Its inhibition at 1000.92 g/ha is 100%.

Q: What about the inhibition at 280.212 g/ha [7] of the same compound?
A: Its inhibition at 280.212 g/ha is 100%.

Q: What about the inhibition at 280.212 g/ha [8] of the same compound?
A: The inhibition at 280.212 g/ha was 100%.

Q: What about the inhibition at 7.95803 g/ha [9] of the same compound?
A: Its inhibition at 7.95803 g/ha is 20%.

Q: And the inhibition at 40.0143 g/ha [9]?
A: The inhibition at 40.0143 g/ha was 50%.

Q: And the inhibition at 200.072 g/ha [9]?
A: Its inhibition at 200.072 g/ha is 50%.

Q: And the inhibition at 280.212 g/ha [9]?
A: The inhibition at 280.212 g/ha was 35%.

Q: And the inhibition at 1000.92 g/ha [9]?
A: The inhibition at 1000.92 g/ha was 100%.

Q: And the inhibition at 280.212 g/ha [10]?
A: Its inhibition at 280.212 g/ha is 100%.

Q: And the inhibition at 7.95803 g/ha [11]?
A: The inhibition at 7.95803 g/ha was 0%.

Q: And the inhibition at 40.0143 g/ha [11]?
A: Its inhibition at 40.0143 g/ha is 35%.

Q: And the inhibition at 200.072 g/ha [11]?
A: The inhibition at 200.072 g/ha was 50%.

Q: What about the inhibition at 1000.92 g/ha [11] of the same compound?
A: The inhibition at 1000.92 g/ha was 45%.

Q: With C#CCOc1cc(-c2nn(C)c(C(F)(F)F)c2C)c(F)cc1Cl [Compound 39] as the compound, how does the inhibition at 7.95803 g/ha [1] read?
A: The inhibition at 7.95803 g/ha was 80%.

Q: And the inhibition at 40.0143 g/ha [1]?
A: Its inhibition at 40.0143 g/ha is 100%.

Q: What about the inhibition at 200.072 g/ha [1] of the same compound?
A: Its inhibition at 200.072 g/ha is 100%.

Q: What about the inhibition at 280.212 g/ha [1] of the same compound?
A: Its inhibition at 280.212 g/ha is 100%.

Q: What about the inhibition at 1000.92 g/ha [1] of the same compound?
A: The inhibition at 1000.92 g/ha was 100%.

Q: And the inhibition at 280.212 g/ha [2]?
A: Its inhibition at 280.212 g/ha is 100%.

Q: And the inhibition at 7.95803 g/ha [3]?
A: The inhibition at 7.95803 g/ha was 50%.

Q: And the inhibition at 40.0143 g/ha [3]?
A: The inhibition at 40.0143 g/ha was 80%.

Q: And the inhibition at 200.072 g/ha [3]?
A: Its inhibition at 200.072 g/ha is 95%.

Q: What about the inhibition at 1000.92 g/ha [3] of the same compound?
A: The inhibition at 1000.92 g/ha was 100%.

Q: What about the inhibition at 7.95803 g/ha [4] of the same compound?
A: Its inhibition at 7.95803 g/ha is 10%.

Q: And the inhibition at 40.0143 g/ha [4]?
A: Its inhibition at 40.0143 g/ha is 80%.

Q: And the inhibition at 200.072 g/ha [4]?
A: Its inhibition at 200.072 g/ha is 95%.

Q: And the inhibition at 280.212 g/ha ([4]; 0.25 lb/A)?
A: Its inhibition at 280.212 g/ha is 100%.

Q: What about the inhibition at 1000.92 g/ha [4] of the same compound?
A: Its inhibition at 1000.92 g/ha is 100%.

Q: And the inhibition at 7.95803 g/ha [6]?
A: The inhibition at 7.95803 g/ha was 70%.

Q: What about the inhibition at 40.0143 g/ha [6] of the same compound?
A: Its inhibition at 40.0143 g/ha is 85%.

Q: What about the inhibition at 200.072 g/ha [6] of the same compound?
A: Its inhibition at 200.072 g/ha is 100%.

Q: And the inhibition at 1000.92 g/ha [6]?
A: The inhibition at 1000.92 g/ha was 100%.

Q: What about the inhibition at 280.212 g/ha [7] of the same compound?
A: The inhibition at 280.212 g/ha was 100%.

Q: What about the inhibition at 280.212 g/ha [8] of the same compound?
A: The inhibition at 280.212 g/ha was 100%.

Q: What about the inhibition at 7.95803 g/ha [9] of the same compound?
A: Its inhibition at 7.95803 g/ha is 0%.

Q: And the inhibition at 40.0143 g/ha [9]?
A: Its inhibition at 40.0143 g/ha is 100%.

Q: What about the inhibition at 200.072 g/ha [9] of the same compound?
A: The inhibition at 200.072 g/ha was 95%.

Q: And the inhibition at 280.212 g/ha [9]?
A: Its inhibition at 280.212 g/ha is 95%.

Q: And the inhibition at 1000.92 g/ha [9]?
A: The inhibition at 1000.92 g/ha was 100%.

Q: And the inhibition at 280.212 g/ha [10]?
A: Its inhibition at 280.212 g/ha is 100%.

Q: What about the inhibition at 7.95803 g/ha [11] of the same compound?
A: Its inhibition at 7.95803 g/ha is 70%.

Q: What about the inhibition at 40.0143 g/ha [11] of the same compound?
A: The inhibition at 40.0143 g/ha was 25%.

Q: What about the inhibition at 200.072 g/ha [11] of the same compound?
A: Its inhibition at 200.072 g/ha is 55%.

Q: What about the inhibition at 1000.92 g/ha [11] of the same compound?
A: Its inhibition at 1000.92 g/ha is 65%.
